In the assay the target is T1, hENT1 (Homo sapiens, UniProt Q99808).
T1 construct: performed on erythrocyte cell membranes endogenously expressing the transporter; tissue Sanquin Bloedvoorziening, Amsterdam, The Netherlands; host or cells: erythrocyte membranes (endogenous expression)
T1 sequence (Q99808 1-456): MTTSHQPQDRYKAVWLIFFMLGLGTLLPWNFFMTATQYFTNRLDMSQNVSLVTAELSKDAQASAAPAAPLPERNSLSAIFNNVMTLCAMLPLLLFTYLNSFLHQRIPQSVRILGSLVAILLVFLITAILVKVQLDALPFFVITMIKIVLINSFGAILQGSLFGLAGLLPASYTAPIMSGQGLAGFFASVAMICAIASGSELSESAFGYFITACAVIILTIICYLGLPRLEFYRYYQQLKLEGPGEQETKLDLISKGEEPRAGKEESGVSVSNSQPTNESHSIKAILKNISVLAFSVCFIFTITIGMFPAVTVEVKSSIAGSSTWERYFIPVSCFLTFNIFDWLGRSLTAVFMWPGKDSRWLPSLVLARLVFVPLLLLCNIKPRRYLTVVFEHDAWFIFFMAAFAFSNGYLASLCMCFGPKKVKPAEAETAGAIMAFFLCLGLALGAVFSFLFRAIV
Put plainly: time-dependent hENT1 radioligand binding assay ([3H]NBTI displacement with or without 4 h preincubation). Conditions: for % displacement at 1 μM at 4 h preincubation / % displacement at 1 μM without preincubation / [3H]NBTI displacement: 1 µM inhibitor; for % displacement at 1 μM at 4 h preincubation / % displacement at 1 μM without preincubation: mean (individual values) of two experiments; for time-dependent shift in affinity (pKi shift) or displacement upon 4 h preincubation: 4 h preincubation vs without preincubation; for [3H]NBTI displacement: with or without 4 h preincubation not told apart. The method, then:
Radioligand displacement assays were performed as previously described. In brief, the experiments were performed on erythrocyte membranes (Sanquin Bloedvoorziening, Amsterdam, The Netherlands) using a single concentration of 1 µM or multiple concentrations (ranging from 10^–10 to 10^–6) of unlabeled inhibitors in the presence of 4 nM [^3H]NBTI at 10 °C for 1 h in assay buffer (50 mM Tris–HCl, pH 7.4, 0.1% w/v CHAPS). Non-specific binding (NSB) was assessed with 10 µM unlabeled NBTI. […] Subsequently, [^3H]NBTI was added to the preincubated and control samples (containing erythrocyte membranes, unlabeled inhibitor and radioligand) and both types of samples were incubated for another hour. Incubation was terminated by rapid vacuum filtration over Whatman™ UniFilter™ 96-well GF/C microplates using a FilterMate™ Universal Harvester (PerkinElmer, Groningen, The Netherlands). Subsequently, the plates were washed ten times with ice-cold wash buffer (50 mM Tris–HCl, pH 7.4). Thereafter, the filters were dried for 45 min at 55 °C and 25 µL of Microscint (PerkinElmer) was added per well.
All experimental data was analyzed using GraphPad Prism 10.0.2 software (GraphPad Software Inc., San Diego, CA, USA). [^3H]NBTI assays were baseline-corrected with NSB and normalized to this value (0%) and TB (100%). The radioligand displacement curves were fitted to a one-site binding model by nonlinear regression from which the pIC50 values were obtained. […] Data shown represent the mean ± SD of at least two or mean ± SEM of at least three individual experiments each performed in duplicate.
Next, the potentially covalent inhibitors that we synthesized were subjected to the aforementioned radioligand displacement assay. To study the existence of a covalent interaction with hENT1, an additional preincubation step was included.

The mark [1] stands for this setting: Ki (nM) at 4 h preincubation, 4 h preincubation at 10 °C.
Where [2] appears, read: pKi ± SEM at 4 h preincubation, 4 h preincubation at 10 °C.
[3] abbreviates: without preincubation, read-out: Ki (nM) without preincubation (converted).

Where two headings read alike, the source gives them in different places.

Take `COc1cc(C(=O)OCCCN2CCN(CCOC(=O)c3cccc(S(=O)(=O)F)c3)CC2)cc(OC)c1OC` [Compound 9a, 3-(4-(2-((3-(fluorosulfonyl)benzoyl)oxy)ethyl)piperazin-1-yl)propyl 3,4,5-trimethoxybenzoate]: the “% displacement at 1 μM at 4 h preincubation” value (4 h preincubation at 10 °C) is listed as 3 (-9, 13) %. Besides, under “without preincubation”, the “% displacement at 1 μM without preincubation” value is -14 (-21, -7) %.
`COc1cc(C(=O)OCCCN2CCN(CCCOC(=O)c3ccc(S(=O)(=O)F)cc3)CC2)cc(OC)c1OC` [Compound 9e, 3-(4-(3-((4-(fluorosulfonyl)benzoyl)oxy)propyl)piperazin-1-yl)propyl 3,4,5-trimethoxybenzoate]: the “% displacement at 1 μM at 4 h preincubation” value (4 h preincubation at 10 °C) is recorded as 26 (30, 22) %. In addition, under “without preincubation”, the “% displacement at 1 μM without preincubation” value is listed as 26 (24, 27) %.
As for `C=CC(=O)NCCc1ccc(C(=O)OCCCN2CCN(CCCOC(=O)c3cc(OC)c(OC)c(OC)c3)CC2)cc1` [Compound 10f, 3-(4-(3-((4-(2-acrylamidoethyl)benzoyl)oxy)propyl)piperazin-1-yl)propyl 3,4,5-trimethoxybenzoate], the “% displacement at 1 μM at 4 h preincubation” value (4 h preincubation at 10 °C) is 7 (0, 13) %. For the same compound, the “% displacement at 1 μM without preincubation” value (without preincubation) is 10 (2, 18) %.
With `COc1cc(C(=O)OCCCN2CCN(CCCCOC(=O)c3ccc(S(=O)(=O)F)cc3)CC2)cc(OC)c1OC` [Compound 9f, 3-(4-(4-((4-(fluorosulfonyl)benzoyl)oxy)butyl)piperazin-1-yl)propyl 3,4,5-trimethoxybenzoate], the “% displacement at 1 μM at 4 h preincubation” value (4 h preincubation at 10 °C) is on record as 54 (53, 56) %. For the same compound, under “without preincubation”, the “% displacement at 1 μM without preincubation” value was 57 (52, 62) %.
On to `COc1cc(C(=O)OCCCN2CCN(CCCOC(=O)c3ccc(N=C=S)cc3)CC2)cc(OC)c1OC` [Compound 9g, 3-(4-(3-((4-isothiocyanatobenzoyl)oxy)propyl)piperazin-1-yl)propyl 3,4,5-trimethoxybenzoate], for which the Ki is 29.9 nM under setting [1], 29.5 nM under setting [2] and 48.5 nM under setting [3].
Regarding `C=CC(=O)Nc1ccc(C(=O)OCCCN2CCN(CCCOC(=O)c3cc(OC)c(OC)c(OC)c3)CC2)cc1` [Compound 10b, 3-(4-(3-((4-acrylamidobenzoyl)oxy)propyl)piperazin-1-yl)propyl 3,4,5-trimethoxybenzoate], the “time-dependent shift in affinity (pKi shift) or displacement upon 4 h preincubation” value (shortened to “time-dependent shift in affinity”) is reported as “absence of a pKi shift”. Under setting [1], this compound showed a Ki of 43.6 nM. The Ki under setting [3] is 33.1 nM.
Turning to `C=CC(=O)NCCCOc1c(OC)cc(C(=O)OCCCN2CCN(CCCOC(=O)c3cc(OC)c(OC)c(OC)c3)CC2)cc1OC` [Compound 14b, 3-(4-(3-((4-(3-acrylamidopropoxy)-3,5-dimethoxybenzoyl)oxy)propyl)piperazin-1-yl)propyl 3,4,5-trimethoxybenzoate], the “time-dependent shift in affinity” value was “no significant increase of the affinity”. The same compound gave a Ki under setting [2] of 3.24 nM. Further, the Ki under setting [3] was 5.9 nM.
`C=CS(=O)(=O)NCCCOc1c(OC)cc(C(=O)OCCCN2CCN(CCCOC(=O)c3cc(OC)c(OC)c(OC)c3)CC2)cc1OC` [Compound 14d, 3-(4-(3-((3,5-dimethoxy-4-(3-(vinylsulfonamido)propoxy)benzoyl)oxy)propyl)piperazin-1-yl)propyl 3,4,5-trimethoxybenzoate]: the “time-dependent shift in affinity” value is “no significant increase of the affinity”. Moreover, the Ki under setting [1] was 14.2 nM. Also, the Ki under setting [3] is 17.5 nM.
`COc1cc(C(=O)OCCCN2CCN(CCOC(=O)c3ccc(S(=O)(=O)F)cc3)CC2)cc(OC)c1OC` [Compound 9d, 3-(4-(2-((4-(fluorosulfonyl)benzoyl)oxy)ethyl)piperazin-1-yl)propyl 3,4,5-trimethoxybenzoate]: under “4 h preincubation at 10 °C”, the “% displacement at 1 μM at 4 h preincubation” value is 33 (34, 32) %. The “% displacement at 1 μM without preincubation” value (without preincubation) is 17 (12, 22) %.
Take `COc1cc(C(=O)OCCCN2CCN(CCCOC(=O)c3cc(OC)c(OCCCN=C=S)c(OC)c3)CC2)cc(OC)c1OC` [Compound 14c, 3-(4-(3-((4-(3-isothiocyanatopropoxy)-3,5-dimethoxybenzoyl)oxy)propyl)piperazin-1-yl)propyl 3,4,5-trimethoxybenzoate]: the “time-dependent shift in affinity” value is “no significant increase of the affinity”. Besides, the Ki under setting [2] is 1.55 nM. The Ki (without preincubation, read-out: pKi ± SEM without preincubation (converted)) is 1.07 nM.
With `COc1cc(C(=O)OCCCN2CCN(CCCCOC(=O)c3cccc(S(=O)(=O)F)c3)CC2)cc(OC)c1OC` [Compound 9c, 3-(4-(4-((3-(fluorosulfonyl)benzoyl)oxy)butyl)piperazin-1-yl)propyl 3,4,5-trimethoxybenzoate], the “% displacement at 1 μM at 4 h preincubation” value (4 h preincubation at 10 °C) is reported as 51 (48, 54) %. In addition, the “% displacement at 1 μM without preincubation” value (without preincubation) is recorded as 61 (53, 69) %.
Take `C=CC(=O)Nc1cccc(C(=O)OCCCN2CCN(CCCOC(=O)c3cc(OC)c(OC)c(OC)c3)CC2)c1` [Compound 10a, 3-(4-(3-((3-acrylamidobenzoyl)oxy)propyl)piperazin-1-yl)propyl 3,4,5-trimethoxybenzoate]: the “[3H]NBTI displacement” value was “around 20%”. Moreover, the “% displacement at 1 μM at 4 h preincubation” value (4 h preincubation at 10 °C) is reported as 24 (18, 30) %. Further, the “% displacement at 1 μM without preincubation” value (without preincubation) was 20 (15, 26) %.
Consider `C=CC(=O)NCCOc1c(OC)cc(C(=O)OCCCN2CCN(CCCOC(=O)c3cc(OC)c(OC)c(OC)c3)CC2)cc1OC` [Compound 14a, 3-(4-(3-((4-(2-acrylamidoethoxy)-3,5-dimethoxybenzoyl)oxy)propyl)piperazin-1-yl)propyl 3,4,5-trimethoxybenzoate], for which the “time-dependent shift in affinity” value is on record as “no observable pKi shift”. Further, the Ki under setting [1] is 50.6 nM. The Ki under setting [3] is 48.6 nM.
For `C=CC(=O)Nc1ccc(C(=O)OCCCCN2CCN(CCCOC(=O)c3cc(OC)c(OC)c(OC)c3)CC2)cc1` [Compound 10c, 3-(4-(4-((4-acrylamidobenzoyl)oxy)butyl)piperazin-1-yl)propyl 3,4,5-trimethoxybenzoate], the “% displacement at 1 μM at 4 h preincubation” value (4 h preincubation at 10 °C) was 41 (30, 51) %. Further, the “% displacement at 1 μM without preincubation” value (without preincubation) is listed as 47 (40, 54) %.
Regarding `COc1cc(C(=O)OCCCN2CCN(CCCOC(=O)c3cccc(S(=O)(=O)F)c3)CC2)cc(OC)c1OC` [Compound 9b, 3-(4-(3-((3-(fluorosulfonyl)benzoyl)oxy)propyl)piperazin-1-yl)propyl 3,4,5-trimethoxybenzoate], under “4 h preincubation at 10 °C”, the “% displacement at 1 μM at 4 h preincubation” value is 33 (32, 34) %. Besides, the “% displacement at 1 μM without preincubation” value (without preincubation) is 33 (32, 33) %.
Consider `C=CC(=O)NCc1ccc(C(=O)OCCCN2CCN(CCCOC(=O)c3cc(OC)c(OC)c(OC)c3)CC2)cc1` [Compound 10e, 3-(4-(3-((4-(acrylamidomethyl)benzoyl)oxy)propyl)piperazin-1-yl)propyl 3,4,5-trimethoxybenzoate], for which the “% displacement at 1 μM at 4 h preincubation” value (4 h preincubation at 10 °C) was 29 (20, 37) %. Moreover, the “% displacement at 1 μM without preincubation” value (without preincubation) is listed as 29 (24, 35) %.
With `C=CC(=O)Nc1ccc(C(=O)OCCCN2CCN(CCCOC(=O)c3cc(OC)c(OC)c(OC)c3)CC2)cc1OC` [Compound 10d, 3-(4-(3-((4-acrylamido-3-methoxybenzoyl)oxy)propyl)piperazin-1-yl)propyl 3,4,5-trimethoxybenzoate], the “[3H]NBTI displacement” value was “around 20%”. In addition, under “without preincubation”, the “% displacement at 1 μM without preincubation” value was 27 (28, 26) %.

The values above are taken from article PMC12061832, “Exploring novel dilazep derivatives as hENT1 inhibitors and potentially covalent molecular tools” (Purinergic Signalling, 2024).
